Test results taken from patent US4719231A, “3-[N-(mercaptoacyl)]amino-4-arylbutanoic acid derivatives and an analgesic agent comprising the same” (Zaidan Hojin Biseibutsu Kagaku Kenkyu Kai, priority 1984, dated 1988).
Values joined by “and” are separate entries in the source; they are usually repeats but may differ in a detail not shown here. Identical values can stand only once.

Experiments:
enkephalinase = target: T1, enkephalinase (Rattus norvegicus, UniProt P07861); experiment: Inhibitory activity against enkephalinase; format: biochemical; conditions: enkephalinase from corpus striatum of rat brain; substrate methionine-enkephaline; pH 7.7; 1 hour at 37° C.
T1 construct: A preparation of enkephalinase was made by homogenizing corpus striatum of rat brain and by partial purification of the brain homogenate; from tissue; host or cells: rat brain corpus striatum, homogenized and partially purified
T1 sequence (P07861 1-750): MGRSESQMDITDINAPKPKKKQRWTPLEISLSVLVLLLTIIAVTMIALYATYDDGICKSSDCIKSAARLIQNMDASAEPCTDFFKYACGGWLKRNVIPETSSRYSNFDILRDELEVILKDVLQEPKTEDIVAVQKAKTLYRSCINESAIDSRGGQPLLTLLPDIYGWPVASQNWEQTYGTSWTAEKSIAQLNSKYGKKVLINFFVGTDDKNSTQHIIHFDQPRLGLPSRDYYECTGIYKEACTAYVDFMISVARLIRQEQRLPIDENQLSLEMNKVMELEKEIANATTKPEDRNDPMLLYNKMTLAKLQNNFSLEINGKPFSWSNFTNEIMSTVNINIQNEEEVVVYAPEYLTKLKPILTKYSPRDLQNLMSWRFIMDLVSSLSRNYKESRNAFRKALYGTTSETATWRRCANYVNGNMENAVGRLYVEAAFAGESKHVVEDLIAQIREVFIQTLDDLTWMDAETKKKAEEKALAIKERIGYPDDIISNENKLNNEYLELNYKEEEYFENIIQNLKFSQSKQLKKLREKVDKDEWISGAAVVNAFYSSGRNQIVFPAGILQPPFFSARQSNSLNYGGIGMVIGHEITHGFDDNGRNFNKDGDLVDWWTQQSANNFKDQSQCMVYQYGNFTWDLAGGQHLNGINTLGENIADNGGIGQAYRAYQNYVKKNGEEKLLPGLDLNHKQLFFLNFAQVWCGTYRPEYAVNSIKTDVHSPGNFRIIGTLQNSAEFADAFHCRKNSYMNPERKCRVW
Protocol: Inhibitory activity against enkephalinase
A preparation of enkephalinase was made by homogenizing corpus striatum of rat brain and by partial purification of the brain homogenate according to the method of Gorenstein et al (see: the "Life Science" vol. 25, 2065~2070 (1979)).
A test compound as identified in Table 1 below was dissolved in a mixture of Tris-hydrochloride buffered solution (pH 7.7) and an aqueous 1% Triton×100 (an active surfactant) to such a concentration that the added quantity of the test compound amounted to one-tenth of the volume of said mixture. To the solution of the test compound so prepared was added the enkephalinase, followed by incubation for 5 minutes at ambient temperature and the resulting mixture was admixed with methionine-enkephaline as the substrate. The reaction mixture so prepared was incubated for 1 hour at 37° C. and then subjected to a high-performance liquid chromatography in such a manner that the Tyr-Gly-Gly (a fragment of the methionine-enkephaline) formed by the enzymatic degradation of the methionine-enkephaline was isolated and the quantity of Tyr-Gly-Gly was determined by an electro-chemical detector. In this way, IC50 value of the test compound, namely, the dose of the test compound required for 50% inhibition of the enkephalinase was measured.

[1] = Effect of enhancing the analgesia by DAME, tail-flick latency method; format: in vivo, rat; conditions: rats; for Enhancement in the analgesia by DAME: DAME 10 μg + test compound 30 μg relative to DAME 10 μg; for M.P.E. DAME 10 μg + Test Compound 30 μg: n = 3 - 4, **P < 0.01; for M.P.E. Test compound 30 μg: test compound 30 μg alone, n = 3 - 4
Protocol: Effect of enhancing the analgesia by [D-ala^2,met^5 ]enkephaline (abbreviated as DAME)
A known analgesic compound, DAME and the particular compound under test of this invention were administered into the brain of the test rats by puncture of cerebroventride.
Thus, the test compound was administered into the brain of the rats using a metal cannula of 400 μm in external diameter which had been inserted into the ventriculus lateralis cerebri in a brain region of 3.2 mm anterior from the bregma, 0 mm from the central line and 0.7 mm in depth, of the brain. [see "L. J. Pellegrino and A. J. Cushman; A Stereotaxic Atras of the Rat Brain. Appleton-Century-Crofts, Division of Meredith Publishing Co., New York, (1967)"]. The test for the estimation was commenced at such a time after 48 hours or more later than the end of the surgical operation when the test rats were deemed as having recovered from the damages induced by the surgical operation. Analgesia tests were conducted using the rats having been closely restrained in a wire mesh cage, according to the tail-flick latency method (see: Hachisu et al., Life Sciences, 30, 1739-1746 (1982)). Analgesic activity was evaluated in term of the value of percentage of increase in the tail-flick latency time of the test rats receiving the test compound, as compared with the control rats receiving no test compound. The power of the radiant heat source was adjusted to give a tail-flick latency value (as the control value) of about 2 seconds for the rats before the administration of the test compound.
The cut-off of 7 seconds was used in order to prevent the tail tissues from being damaged by the heat. The maximal percent effect (M.P.E) of the tail-flick latency test was calculated according to the following equation: [formula]

[2] = Analgesic activity by the acetic acid-writhing method; format: in vivo, mouse (ddy-strain); conditions: mice, *P < 0.05, **P < 0.01
Protocol: Analgesic activity of test compound as estimated according to the acetic acid-writhing method
Mice of ddy-strain (body weight 20 to 25 grams) were employed as the test animal. A suspension of the compound under test was subcutaneously injected in such a manner that said suspension as injected into each mouse provides the dosage of 30 mg/kg or 300 mg/kg of the test compound. 30 Minutes after the administration, an aqueous solution of 0.6% of acetic acid was injected intraperitoneally into the mice at a volume of 0.1 ml per 10 g of the body weight. 5 Minutes after the injection of the aqueous acetic acid, the estimation was commenced to count the number of the writhing reaction of the treated mice (the motions such as abdominal constrictions and extensions of the treated mice as induced by the injection of acetic acid) which took place for the subsequent 15 minutes.
The rate (%) of suppression of the writhing reaction by the test compound was evaluated according to the following equation: [formula]

[3] = into the brain (cerebroventricle)

In the case of `CC(=O)SCC(=O)N[C@H](Cc1ccccc1)[C@H](O)C(=O)N[C@@H](CC(C)C)C(=O)O` [(2S,3R)-N--(AcSCH2CO)--AHPA--L-Leu, N-{(2S,3R)-3-[N-(acetylthioacetyl)]amino-2-hydroxy-4-phenylbutanoyl}-L-leucine], the IC50 (enkephalinase) is reported as > 300 µM.

With `CC(=O)SCC(=O)N[C@H](Cc1ccccc1)[C@H](O)C(=O)O` [(2S,3R)-N--(AcSCH2 CO)--AHPA, (2S,3R)-3-[N-(acetylthioacetyl)]amino-2-hydroxy-4-phenylbutanoic acid] the “Enhancement in the analgesia by DAME” value [1] was 617.2, the “M.P.E. DAME 10 μg + Test Compound 30 μg” value [1, 3] was 100 ± 0% and the “M.P.E. Test compound 30 μg” value [1, 3] was 13.1 ± 6.0%. For the same molecule, the IC50 (enkephalinase) was 50 µM, the “Rate of suppression (%) (average value ± S.E.)” value (shortened to “Rate of suppression (%)”) ([2]; 30 mg/kg subcutaneous) was 33.7 ± 13.5% and the “Rate of suppression (%)” value ([2]; 300 mg/kg subcutaneous) was 33.3 ± 13.4%.

In the case of `CC(=O)SCC(=O)N[C@H](Cc1ccccc1)[C@H](O)C(=O)NCC(=O)O` [(2S,3R)-N--(AcSCH2 CO)--AHPA--Gly, N-{(2S,3R)-3-[N-(acetylthioacetyl)]amino-2-hydroxy-4-phenylbutanoyl}glycine], the IC50 (enkephalinase) is reported as > 300 µM.

With `CC(SC(=O)c1ccccc1)C(=O)N[C@H](Cc1ccccc1)[C@H](O)C(=O)O` (stereo partly drawn) [(2S,3R)-N--(BzSCH(Me)CO)--AHPA, (2S,3R)-3-[N-(2-benzoylthiopropionyl)]amino-2-hydroxy-4-phenylbutanoic acid] the IC50 (enkephalinase) was > 300 µM.

In the case of `O=C(CCSC(=O)c1ccccc1)N[C@H](Cc1ccccc1)[C@H](O)C(=O)O` [(2S,3R)-N--(BzSCH2 CH2 CO)--AHPA, (2S,3R)-3-[N-(3-benzoylthiopropionyl)]amino-2-hydroxy-4-phenylbutanoic acid], the IC50 (enkephalinase) is reported as > 300 µM.

In the case of `N[C@@H](CS)C(=O)N[C@H](Cc1ccccc1)[C@H](O)C(=O)O` [(2S,3R)-N--(L-Cys)--AHPA, (2S,3R)-3-(N-L-Cysteinyl)amino-2-hydroxy-4-phenylbutanoic acid], the “Enhancement in the analgesia by DAME” value [1] is reported as 604.2, the “M.P.E. DAME 10 μg + Test Compound 30 μg” value [1, 3] is reported as 87.0 ± 13.0% and the “M.P.E. Test compound 30 μg” value [1, 3] is reported as 10.0 ± 5.2%. The IC50 (enkephalinase) was 40 µM, the “Rate of suppression (%)” value ([2]; 30 mg/kg subcutaneous) was 56.5 ± 9.9% and the “Rate of suppression (%)” value ([2]; 300 mg/kg subcutaneous) was 47.9 ± 11.9%.

Molecule `CC(=O)SCC(=O)N[C@@H](Cc1ccccc1)[C@H](O)C(=O)O` [(2S,3S)-N--(AcSCH2 CO)--AHPA, (2S,3S)-3-[N-(acetylthioacetyl)]amino-2-hydroxy-4-phenylbutanoic acid] has an IC50 (enkephalinase) of 300 µM.

With `O=C(CS)N[C@H](Cc1ccccc1)[C@H](O)C(=O)O` [(2S,3R)-N--(HSCH2 CO)--AHPA, (2S,3R)-3-[N-(mercaptoacetyl)]amino-2-hydroxy-4-phenylbutanoic acid] the IC50 (enkephalinase) was 3 µM, the “Rate of suppression (%)” value ([2]; 30 mg/kg subcutaneous) was 12.5 ± 14.7% and the “Rate of suppression (%)” value ([2]; 300 mg/kg subcutaneous) was 36.5 ± 10.5%.

With `O=C(CS)N[C@@H](Cc1ccccc1)[C@H](O)C(=O)O` [(2S,3S)-N--(HSCH2 CO)--AHPA, (2S,3S)-3-[N-(mercaptoacetyl)]amino-2-hydroxy-4-phenylbutanoic acid] the IC50 (enkephalinase) was 20 µM.

With “[D-ala^2,met^5 ]enkephaline [DAME, reference compound]” the “M.P.E. DAME 10 μg” value ([1]; DAME 10 μg alone, into the brain (cerebroventricle), n = 3 - 4, *P < 0.05) was 16.2 ± 3.9% and 14.4 ± 4.2%.

`N[C@H](Cc1ccccc1)[C@H](O)C(=O)O` [(2S,3R)-AHPA, 3-amino-2-hydroxy-4-phenylbutanoic acid, reference compound] gave an IC50 (enkephalinase) of 14000 µM.
